Measured values: patent publication US20240199605A1, “SMALL MOLECULAR INHIBITORS OF NF-kB INDUCING KINASE” (Janssen Pharmaceutica NV, priority 2019, published 2024)

Key:
[1] = target: recombinant human NF-kappaB-inducing kinase (NIK/MAP3K14) (Homo sapiens (Human), UniProt Q99558); assay: Inhibition of auto-phosphorylation of recombinant human NIK/MAP3K14 (AlphaScreen); type: biochemical; conditions: NIK auto-phosphorylation, 5 μM ATP, 1 nM NIK, 2 h at 25° C.; average of values
Outline: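 AlphaScreen read-out (anti-phospho-IKK Ser176/180 antibody, Protein A acceptor and glutathione donor beads) of NIK auto-phosphorylation. Reaction: 1 nM enzyme, 5 μM ATP, Tris pH 7.5 buffer with Mg2+ and vanadate, 2 h at 25° C., final DMSO 0.7%. IC50 came from a sigmoidal curve fit.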

[2] = test system: p-IKKα levels in L363 (NIK translocated multiple myeloma) cells; assay: Effect of compounds on p-IKKα levels in L363 cells (AlphaLISA SureFire Ultra); type: cell-based, human; conditions: Homo sapiens, L-363, 6 h, BAFF stimulated, MG132, 6 h, average of values, read-out: Assay 2 IC50
Outline: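 Inhibition of p-IKKα (Ser176/180) read by AlphaLISA after 6 h, 37 °C compound exposure (11-point 1:3 series, 0.3% DMSO) of L363 cells pre-incubated overnight ± 250 ng/ml BAFF and plated ± BAFF ± 10 μM MG132. Normalised to BAFF/MG132/DMSO and unstimulated controls; IC50 by sigmoidal fitting, duplicates.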

Chain of recombinant human NF-kappaB-inducing kinase (NIK/MAP3K14) (Q99558 whole entry): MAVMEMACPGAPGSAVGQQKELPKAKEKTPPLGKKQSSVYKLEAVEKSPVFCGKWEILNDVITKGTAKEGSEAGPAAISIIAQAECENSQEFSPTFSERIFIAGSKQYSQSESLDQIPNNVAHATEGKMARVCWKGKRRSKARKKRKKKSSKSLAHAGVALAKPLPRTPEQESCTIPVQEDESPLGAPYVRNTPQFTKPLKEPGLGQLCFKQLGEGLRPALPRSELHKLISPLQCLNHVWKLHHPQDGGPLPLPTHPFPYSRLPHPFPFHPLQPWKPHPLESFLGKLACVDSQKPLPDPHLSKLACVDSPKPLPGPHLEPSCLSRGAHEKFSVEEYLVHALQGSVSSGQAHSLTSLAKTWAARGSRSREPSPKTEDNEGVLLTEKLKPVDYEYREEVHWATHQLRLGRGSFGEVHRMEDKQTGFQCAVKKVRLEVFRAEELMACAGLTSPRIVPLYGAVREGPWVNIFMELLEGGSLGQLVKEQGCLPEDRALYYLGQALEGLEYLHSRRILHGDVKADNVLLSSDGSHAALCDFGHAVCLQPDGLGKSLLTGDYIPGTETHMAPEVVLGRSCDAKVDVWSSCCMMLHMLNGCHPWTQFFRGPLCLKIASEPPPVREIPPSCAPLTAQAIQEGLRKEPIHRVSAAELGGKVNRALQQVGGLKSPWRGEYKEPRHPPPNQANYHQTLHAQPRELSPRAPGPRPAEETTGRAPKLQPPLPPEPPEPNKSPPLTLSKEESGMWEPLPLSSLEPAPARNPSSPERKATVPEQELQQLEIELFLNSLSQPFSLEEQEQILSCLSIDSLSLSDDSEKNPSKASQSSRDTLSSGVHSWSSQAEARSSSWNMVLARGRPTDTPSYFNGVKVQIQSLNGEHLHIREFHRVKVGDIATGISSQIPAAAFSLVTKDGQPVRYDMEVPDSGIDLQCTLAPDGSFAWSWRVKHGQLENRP

| Compound | IC50 [1] [nM] | IC50 [2] [nM] |
| --- | --- | --- |
| Cc1ccc(C#C[C@]2(O)CCN(C)C2=O)cc1-c1ncc2ncnc(N)c2n1 [Example 188, (R)-3-((3-(8-Aminopyrimido[5,4-d]pyrimidin-2-yl)-4-methylphenyl)ethynyl)-3-hydroxy-1-methylpyrrolidin-2-one] | 1 | 23 |
| C=Cc1cc(-c2cccc(C#C[C@]3(O)CCN(C)C3=O)c2)nc2c(N)ncnc12 [Example 314, (R)-3-((3-(4-Amino-8-vinylpyrido[3,2-d]pyrimidin-6-yl)phenyl)ethynyl)-3-hydroxy-1-methylpyrrolidin-2-one] | 2.9 | 14 |
| CN1CC[C@@](O)(C#Cc2cccc(-c3ccc4nc[nH]c(=O)c4n3)c2)C1=O [Example 221, (R)-6-(3-((3-Hydroxy-1-methyl-2-oxopyrrolidin-3-yl)ethynyl)phenyl)pyrido[3,2-d]pyrimidin-4(3H)-one] | 630 | > 5000 |
| Cc1nc(N)c2nc(-c3cccc(C#C[C@](C)(O)c4nc(C(F)(F)F)cs4)c3)ccc2n1 [Example 193, (S)-4-(3-(4-Amino-2-methylpyrido[3,2-d]pyrimidin-6-yl)phenyl)-2-(4-(trifluoromethyl)thiazol-2-yl)but-3-yn-2-ol] | 2370 | > 5000 |
| [2H]c1nc(N)c2nc(-c3cccc(C#C[C@]4(O)CCN(C)C4=O)c3)nc(C)c2n1 [Example 168, (R)-3-((3-(8-Amino-4-methylpyrimido[5,4-d]pyrimidin-2-yl-6-d)phenyl)ethynyl)-3-hydroxy-1-methylpyrrolidin-2-one] | 2.2 | 4.2 |
| CN1CC[C@@](O)(C#Cc2cccc(-c3cc(N4CCC4)c4ncnc(N)c4n3)c2)C1=O [Example 316, (R)-3-[2-[3-[4-Amino-8-(azetidin-1-yl)pyrido[3,2-d]pyrimidin-6-yl]phenyl]ethynyl]-3-hydroxy-1-methyl-pyrrolidin-2-one] | 0.9 | 9.5 |
| Cc1ccc(C#C[C@]2(O)CCN(C)C2=O)cc1-c1ncc2ccnc(N)c2n1 [Example 43, (R)-3-((3-(8-Aminopyrido[3,4-d]pyrimidin-2-yl)-4-methylphenyl)ethynyl)-3-hydroxy-1-methylpyrrolidin-2-one] | 0.9 | 60 |
| CCc1nc(N)c2nc(-c3cccc(C#C[C@]4(O)CCN(C)C4=O)c3)ccc2n1 [Example 210, (R)-3-((3-(4-Amino-2-ethylpyrido[3,2-d]pyrimidin-6-yl)phenyl)ethynyl)-3-hydroxy-1-methylpyrrolidin-2-one] | 0.8 | 45 |
| CN1CC[C@](O)(C#Cc2cccc(-c3cc(Br)c4ncnc(N)c4n3)c2)C1=O [Example 254, (S)-3-((3-(4-Amino-8-bromopyrido[3,2-d]pyrimidin-6-yl)phenyl)ethynyl)-3-hydroxy-1-methylpyrrolidin-2-one] | 230 | 1330 |
| CN1CC[C@@](O)(C#Cc2cccc(-c3ccc4ncnc(-c5ccccc5)c4n3)c2)C1=O [Example 257, (R)-3-Hydroxy-1-methyl-3-((3-(4-phenylpyrido[3,2-d]pyrimidin-6-yl)phenyl)ethynyl)pyrrolidin-2-one] | 44 | 2460 |
| COc1ccc(C#C[C@]2(O)CCN(C)C2=O)cc1-c1ncc2ncnc(N)c2n1 [Example 177, (R)-3-((3-(8-Aminopyrimido[5,4-d]pyrimidin-2-yl)-4-methoxyphenyl)ethynyl)-3-hydroxy-1-methylpyrrolidin-2-one] | 5.1 | 66 |
| CN1CC[C@@](O)(C#Cc2cccc(-c3ncc4c(CC(C)(C)C)cnc(N)c4n3)c2)C1=O [Example 151, (R)-3-((3-(8-Amino-5-neopentylpyrido[3,4-d]pyrimidin-2-yl)phenyl)ethynyl)-3-hydroxy-1-methylpyrrolidin-2-one] | 0.7 | 28 |
| Cc1nc(N)c2nc(-c3cccc(C#CC(C)(O)c4c[nH]cn4)c3)ccc2n1 (racemic) [Example 202, racemic-4-(3-(4-Amino-2-methylpyrido[3,2-d]pyrimidin-6-yl)phenyl)-2-(1H-imidazol-4-yl)but-3-yn-2-ol] | 1 | 280 |
| CC(C)c1ncnc2ccc(-c3cccc(C#C[C@]4(O)CCN(C)C4=O)c3)nc12 [Example 272, (R)-3-Hydroxy-3-((3-(4-isopropylpyrido[3,2-d]pyrimidin-6-yl)phenyl)ethynyl)-1-methylpyrrolidin-2-one] | 59 | 1960 |

These reach a lower IC50 [1]. Values come first.

| IC50 [1] [nM] | IC50 [2] [nM] | Compound |
| --- | --- | --- |
| ≤ 0.5 | 12 | CN1CC[C@@](O)(C#Cc2cccc(-c3ncc4c(C(F)(F)F)cnc(N)c4n3)c2)C1=O [Example 99, (R)-3-[2-[3-[8-Amino-5-(trifluoromethyl)pyrido[3,4-d]pyrimidin-2-yl]phenyl]ethynyl]-3-hydroxy-1-methyl-pyrrolidin-2-one] |
| ≤ 0.5 | 52 | Cc1cc([C@](C)(O)C#Cc2cccc(-c3ncc4ccnc(N)c4n3)c2)no1 [Example 34, (R)-4-[3-(8-Aminopyrido[3,4-d]pyrimidin-2-yl)phenyl]-2-(5-methylisoxazol-3-yl)but-3-yn-2-ol] |
| ≤ 0.5 | 4 | CN1CC[C@@](O)(C#Cc2cccc(-c3ncc4c(-c5cnn(CC(C)(C)O)c5)cnc(N)c4n3)c2)C1=O [Example 123, (R)-3-[2-[3-[8-Amino-5-[1-(2-hydroxy-2-methyl-propyl)pyrazol-4-yl]pyrido[3,4-d]pyrimidin-2-yl]phenyl]ethynyl]-3-hydroxy-1-methyl-pyrrolidin-2-one] |
| 0.6 | 1.4 | [2H]c1nc(N)c2nc(-c3cccc(C#C[C@]4(O)CCN(C)C4=O)c3)cc(C(C)C)c2n1 [Example 283, (R)-3-((3-(4-Amino-8-isopropylpyrido[3,2-d]pyrimidin-6-yl-2-d)phenyl)ethynyl)-3-hydroxy-1-methylpyrrolidin-2-one] |
| ≤ 0.5 | 5.9 | Nc1nccc2cnc(-c3cccc(C#C[C@]4(O)CCn5ccnc54)c3)nc12 [Example 17, (R)-7-[2-[3-(8-Aminopyrido[3,4-d]pyrimidin-2-yl)phenyl]ethynyl]-5,6-dihydropyrrolo[1,2-a]imidazol-7-ol] |
| ≤ 0.5 | 9.3 | C[C@@](O)(C#Cc1cccc(-c2ncc3ncnc(N)c3n2)c1)c1nccs1 [Example 137, (R)-4-(3-(8-Aminopyrimido[5,4-d]pyrimidin-2-yl)phenyl)-2-(thiazol-2-yl)but-3-yn-2-ol] |
| ≤ 0.5 | 12 | [2H]C([2H])([2H])N1CC[C@@](O)(C#Cc2cccc(-c3ccc4nc(CF)nc(N)c4n3)c2)C1=O [Example 208, (R)-3-((3-(4-Amino-2-(fluoromethyl)pyrido[3,2-d]pyrimidin-6-yl)phenyl)ethynyl)-3-hydroxy-1-(methyl-d3)pyrrolidin-2-one] |
| ≤ 0.5 | 6.1 | Nc1ncnc2cnc(-c3cccc(C#C[C@@]4(O)CCc5cccnc54)c3)nc12 [Example 155, (S)-7-((3-(8-Aminopyrimido[5,4-d]pyrimidin-2-yl)phenyl)ethynyl)-6,7-dihydro-5H-cyclopenta[b]pyridin-7-ol] |
| ≤ 0.5 | 33 | CN1CC[C@@](O)(C#Cc2cccc(-c3cc(Cl)c4ncnc(N)c4c3)c2)C1=O [Example 117, (R)-3-((3-(4-Amino-8-chloroquinazolin-6-yl)phenyl)ethynyl)-3-hydroxy-1-methylpyrrolidin-2-one] |
